Common to all, as to experiment: NCI-60 cell line screen, 48 h
Test [1] deals with 786-0 renal.
In test [2] the test system is HOP-92 NSCLC.
In test [3] the test system is HT29 colon.
In test [4] the test system is NCI-H522 lung.
Test [5] concerns IGROV1 ovarian.
In test [6] the test system is SK-MEL-2 melanoma.
In test [7] the test system is MDA-MB-231 breast.
For test [8], the system named is DU-145 prostate.
For test [9], the system named is SR leukemia.
The test system of test [10] is U251 CNS.

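Exposure lasted 48 hours, with cells grown in 96-well plates and compounds tested at five concentrations. At the GI50, growth is halved. At the TGI there is no net growth.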

With `O=c1cc(-c2ccccc2)oc2cc(OC/C(=N/O)c3ccc(F)cc3)ccc12`, the GI50 in [1] was 39.6 µM; in [2], 28.6 µM; in test [3], 29.6 µM; in test [4] it was 14.9 µM; in test [5], 19.6 µM; in test [6], 20.2 µM. Moreover, the GI50 in test [7] is 16.3 µM; in test [8], 18.1 µM; in test [9] it was 23 µM; in test [10] it was 22 µM. The TGI in [1], in test [2], in test [3], in test [4], in test [5] and in test [6] was over 50 µM each time. The TGI in [7], in [8], in test [9] and in test [10] was over 50 µM in each case.
For `Nc1nc(=O)n([C@@H]2CS[C@H](CO)O2)cc1F`, the GI50 in test [1], in test [2], in test [3], in test [4], in [5] and in test [6] was over 100 µM each time. In addition, the GI50 in test [7], in [8], in test [9] and in test [10] was over 100 µM each time. Also, the TGI in [1], in test [2], in test [3], in test [4], in [5] and in test [6] was over 100 µM in each case. Also, the TGI in [7], in [8], in [9] and in test [10] was over 100 µM in each case.
Turning to `C[C@]12CCNC(=O)C=C1CC[C@@H]1C2CC[C@@]2(C)C1CC[C@@H]2OC(=O)COc1ccc(N(CCCl)CCCl)cc1` (stereo partly drawn), the TGI in test [1] amounted to 3.19 µM; in test [2], 23.3 µM; in [3] it was 27.5 µM; in test [4], 3.08 µM; in [5] it was 33.4 µM; in test [6] it was 44.4 µM. Further, the TGI in test [7] worked out at 34.8 µM; in test [8] it was 22 µM; in test [9] it was 15.7 µM; in test [10], 11.1 µM.
With `Cc1cc(Cl)ccc1Nc1nc(C(F)(F)F)ccc1C(=O)N/N=C/c1ccccc1Cl`, the GI50 is 0.672 µM in test [1]; 2.14 µM in test [2]; 2.01 µM in [3]; 1.48 µM in test [4]; 1.57 µM in [5]; 3.22 µM in test [6]. The GI50 in test [7] was 1.13 µM; in test [8] it was 1.62 µM; in test [9] it was 0.188 µM; in test [10], 0.526 µM. Further, the TGI in test [1] is 2.67 µM; in test [2], over 24.6 µM; in [3], over 41.9 µM; in [4], 6.77 µM; in [5], over 42.2 µM; in [6], 18.8 µM. For the same molecule, the TGI was 5.53 µM in test [7], over 27.6 µM in test [8], 0.768 µM in test [9] and 4.86 µM in test [10].
Consider `CC1=C(C)C2(O)C(=C(C)C1=O)/C(=C(/O)c1ccccc1)c1nc3ccccc3n12` (stereo not drawn), for which the GI50 in [1] was 29.5 µM; in test [2], 16.1 µM; in test [3], 32.5 µM; in [4] it was 19.6 µM; in test [5] it was 12.3 µM; in [6], 19.4 µM. Also, the GI50 was 15.4 µM in test [7], 26.8 µM in [8], 10.9 µM in test [9] and 22.1 µM in test [10]. Also, the TGI in test [1] is 83.9 µM; in test [2] it was 41.7 µM; in [3], over 100 µM; in test [4] it was 44.2 µM; in [5], 30.4 µM; in test [6] it was 40 µM. The TGI stood at 30 µM in [7], 68.6 µM in test [8], 37.6 µM in test [9] and 58.2 µM in [10].
Regarding `COc1cc2c(=O)n(CCN(C)C)c3c4cc5c(cc4ccc3c2cc1OC)OCO5`, the GI50 was 0.166 µM in test [1]; 0.505 µM in [2]; 0.178 µM in test [3]; 0.114 µM in test [4]; 0.257 µM in [5]; 0.876 µM in test [6]. Moreover, the GI50 in test [7] was 0.824 µM; in [8], 0.199 µM; in test [9], 0.0557 µM; in [10], 0.153 µM. Also, the TGI in test [1] is 0.672 µM; in test [2], 2.6 µM; in test [3], 5.43 µM; in test [4] it was 1.21 µM; in test [5] it was 2.55 µM; in [6], 1.94 µM. The TGI in test [7] is 3.53 µM; in test [8], 6.27 µM; in [9], 3.78 µM; in [10], 1.92 µM.
With `Cc1cccc(NC(=O)/C=C/c2ccc([N+](=O)[O-])cc2)c1`, the TGI is over 51.2 µM in test [1]; 50.7 µM in test [2]; over 70.3 µM in test [3]; over 53.9 µM in [4]; over 53.7 µM in test [5]; 49.4 µM in test [6]. The TGI was over 52.8 µM in test [7], over 55 µM in test [8], over 24.5 µM in [9] and over 52.9 µM in test [10].
Take `C=C1C(=O)O[C@H]2[C@H]1CC/C(COC(=O)NCCc1c[nH]c3ccc(Cl)cc13)=C\CC[C@@]1(C)O[C@@H]21`: the GI50 is 1.38 µM in test [1]; 1.4 µM in test [2]; 1.46 µM in test [3]; 1.69 µM in [4]; 1.55 µM in test [5]; 1.63 µM in test [6]. Moreover, the GI50 in test [7] was 1.84 µM; in [8], 1.61 µM; in test [9] it was 0.944 µM; in test [10], 1.8 µM. For the same molecule, the TGI was 2.79 µM in test [1]; 2.84 µM in test [2]; 3.24 µM in [3]; 3.35 µM in test [4]; 3.11 µM in test [5]; 3.15 µM in test [6]. The TGI amounted to 3.44 µM in test [7], 3.25 µM in test [8], 5.95 µM in test [9] and 3.31 µM in test [10].
Regarding `N#Cc1c(N)nc(NCc2ccccc2)c(C#N)c1-c1ccc(Cl)cc1Cl`, the GI50 is over 100 µM in test [1]; 1.12 µM in test [2]; over 100 µM in [3]; over 68.7 µM in test [4]; 40.5 µM in test [5]; over 77.2 µM in test [6]. The GI50 in [7] was over 100 µM; in test [8], over 100 µM; in [9] it was 2.07 µM; in [10], over 61.9 µM. In addition, the TGI in test [1], in test [2], in [3], in test [4], in test [5] and in test [6] was over 100 µM in each case. The TGI in test [7] is over 100 µM; in test [8] it was over 100 µM; in test [9], 21.8 µM; in test [10], over 100 µM.
`N#CN1CC[C@H](C(=O)Nc2cc3cc(C(N)=O)ccc3cn2)C1`: the GI50 in test [1] is 0.222 µM; in [2] it was 0.0692 µM; in test [3], 0.144 µM; in test [4], 0.0695 µM; in test [5], 0.387 µM; in test [6] it was 0.0266 µM. In addition, the GI50 in test [7] is 0.0995 µM; in test [8] it was 0.357 µM; in test [9] it was 0.0347 µM; in [10] it was 0.0815 µM. The TGI in [2] was 0.542 µM; in test [3], 1.16 µM; in test [4], 0.247 µM; in test [5], over 25.3 µM; in test [6], 0.107 µM; in test [7], over 24.5 µM. Also, the results for the TGI in test [8] and in test [10] were over 65.4 µM and 38.4 µM, respectively.
Turning to `COc1cccc(/C(C)=N/NC(=O)CSc2nc3ccccc3c(=O)n2CCc2ccc(S(N)(=O)=O)cc2)c1`, the GI50 was 1.47 µM in test [1]; 1.95 µM in test [2]; 2.36 µM in test [3]; 2.66 µM in test [4]; 5.09 µM in test [5]; 3.42 µM in test [6]. Moreover, the GI50 in test [7] is 2.23 µM; in test [8], 3.35 µM; in test [9], 0.481 µM; in test [10], 1.98 µM. Also, the TGI in test [1] was 3.95 µM; in [2], 11.9 µM; in test [3], 5.31 µM; in test [4], 9.65 µM; in test [5], 24.4 µM; in test [6] it was 16.3 µM. In addition, the TGI was 5.06 µM in test [7], 10.6 µM in [8], over 100 µM in [9] and 3.67 µM in test [10].
As for `COc1cc(NCCN=C(N)NC(N)=NC(C)C)c2ncccc2c1`, the GI50 in test [1] is over 88.8 µM; in [2], 3.59 µM; in test [3] it was 7.91 µM; in test [4] it was 3.61 µM; in test [5], 1.37 µM; in test [6], 1.99 µM. Further, the GI50 is 3.17 µM in test [7], 38.3 µM in [8], 15 µM in test [9] and 12.4 µM in test [10]. The TGI in test [1] was over 100 µM; in test [2] it was 31.6 µM; in [3] it was over 100 µM; in test [4], 40.7 µM; in test [5] it was over 24.8 µM; in test [6] it was 7.36 µM. Moreover, the TGI in [7] is 21.4 µM; in [8], over 100 µM; in test [9] it was over 100 µM; in test [10], over 100 µM.
